The text below walks through data of patent US20260083704A1, “LXR MODULATORS WITH BICYCLIC CORE MOIETY FOR TREATING DYSLIPIDEMIAS” (OrsoBio, Inc., priority 2022, published 2026).

Read-outs that look alike come from different tables or passages of the source.

Data set [1] can be described thus: Pharmacokinetics in mice after single oral dosing (blood/plasma and liver exposure). Format: in vivo. The settings on record: 20 mg/kg single oral dose, time point 4 h. The procedure:
The pharmacokinetics of the compounds was assessed in mice after single dosing and oral administrations. Blood/plasma and liver exposure was measured via LC-MS.
The study design was as follows: • Animals: C57/bl6/J (Janvier) males • Diet: standard rodent chow • Dose: 20 mg/kg • Animal handling: animals were withdrawn from food at least 12 h before administration • Design: single dose oral administration, n=3 animals per group • Sacrifice: at stated time point (4, 12 or 24 h) after administration • Bioanalytics: LC-MS of liver and blood/plasma samples

Data set [2] concerns the target T1, LXRβ (Homo sapiens, UniProt P55055).
T1 construct: LXRβ (amino acids 156-461); expressed in transfected cells; host or cells: HEK293
T1 sequence (P55055 156-460): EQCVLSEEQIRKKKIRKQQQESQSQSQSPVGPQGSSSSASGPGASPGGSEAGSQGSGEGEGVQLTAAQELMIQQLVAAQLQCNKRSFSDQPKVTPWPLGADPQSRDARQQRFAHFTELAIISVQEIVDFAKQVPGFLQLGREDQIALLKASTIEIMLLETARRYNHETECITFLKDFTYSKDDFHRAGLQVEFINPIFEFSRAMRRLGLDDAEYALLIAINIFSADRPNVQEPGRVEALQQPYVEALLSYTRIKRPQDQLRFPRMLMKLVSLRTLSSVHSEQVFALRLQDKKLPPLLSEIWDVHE
Kind of data set: LXR Gal4 reporter transient transfection assay (mammalian two-hybrid, HEK293), LXRβ. Format: cell-based. Particulars: ligand-binding domain (LBD) of LXRβ, HEK293; read-out: LBD-M2H Gal4β. The procedure:
(§1) LXRα and LXRβ activity status was determined via detection of interaction with coactivator and corepressor proteins in mammalian two-hybrid experiments (M2H). For this, via transient transfection the full length (FL) proteins of LXRα (amino acids 1-447; NP005684; SEQ ID NO:1) or LXRβ-(amino acids 1-461; NP009052; SEQ ID NO:2) or the ligand-binding domains (LBD) of LXRα (amino acids 155-447 SEQ ID NO:3) or LXRβ (amino acids 156-461; SEQ ID NO:4) were expressed from pCMV-AD (Stratagene) as fusions to the transcriptional activation domain of NFkB. As cofactors, domains of either the steroid receptor coactivator 1 (SRC1; amino acids 552-887; SEQ ID NO:5) or of the corepressor NCoR (amino acids 1906-2312; NP006302; SEQ ID NO:6) were expressed as fusions to the DNA binding domain of the yeast transcription factor GAL4 (from pCMV-BD; Stratagene). Interaction was monitored via activation of a coexpressed Firefly Luciferase Reporter gene under control of a promoter containing repetitive GAL4 response elements (vector pFRLuc; Stratagene). Transfection efficiency was controlled via cotransfection of constitutively active pRL-CMV Renilla reniformis luciferase reporter (Promega). HEK293 cells were grown in minimum essential medium (MEM) with 2 mM L-glutamine and Earle's balanced salt solution supplemented with 8.3% fetal bovine serum, 0.1 mM non-essential amino acids, 1 mM sodium pyruvate, at 37° C. in 5% CO2. 3.5×10^4 cells/well were plated in 96-well cell culture plates in growth medium supplemented with 8.3% fetal bovine serum for 16-20 h to ˜90% confluency. For transfection, medium was taken off and LXR and cofactor expressing plasmids as well as the reporter plasmids are added in 30 μL OPTIMEM/well including polyethylene-imine (PEI) as vehicle. Typical amounts of plasmids transfected/well: pCMV-AD-LXR (5 ng), pCMV-BD-cofactor (5 ng), pFR-Luc (100 ng), pRL-CMV (0.5 ng). Compound stocks were prepared in DMSO, prediluted in MEM to a total volume of 120 μL, and added 4 h after addition of the transfection mixture (final vehicle concentration not exceeding 0.2%). Cells were incubated for additional 16 h, lysed for 10 min in 1×Passive Lysis Buffer (Promega) and Firefly and Renilla luciferase activities were measured sequentially in the same cell extract using buffers containing D-luciferine and coelenterazine, respectively. Measurements of luminescence were done in a BMG-luminometer.
(§2) The potencies of Compound 21/3 and its analog, Compound pre-6/3, against LXRα and LXRβ were evaluated in biochemical binding assays, cellular mammalian two-hybrid (M2H) interaction assays evaluating nuclear receptor co-repressor (NCOR) recruitment, and cellular reporter assays evaluating transcriptional activity (Table 5).

Data set [3] deals with T2, LXRβ (Homo sapiens, UniProt P55055).
T2 sequence (P55055 1-460): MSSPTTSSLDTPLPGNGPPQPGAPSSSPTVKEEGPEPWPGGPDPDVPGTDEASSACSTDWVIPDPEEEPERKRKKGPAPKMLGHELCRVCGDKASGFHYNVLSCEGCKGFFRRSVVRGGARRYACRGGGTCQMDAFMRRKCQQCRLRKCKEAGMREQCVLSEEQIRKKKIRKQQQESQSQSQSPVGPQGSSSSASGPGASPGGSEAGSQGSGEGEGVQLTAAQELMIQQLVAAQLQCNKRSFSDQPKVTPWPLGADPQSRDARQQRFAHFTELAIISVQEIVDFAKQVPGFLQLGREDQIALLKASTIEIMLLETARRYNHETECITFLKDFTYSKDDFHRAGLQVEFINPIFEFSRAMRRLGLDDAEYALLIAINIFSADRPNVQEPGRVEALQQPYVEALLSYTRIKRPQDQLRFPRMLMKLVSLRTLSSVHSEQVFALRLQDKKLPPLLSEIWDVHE
The description is as above. Particulars: full length (FL) LXRβ, HEK293; read-out: FL-M2H Gal4β. Format: cell-based. Further details: LXRβ (amino acids 156-461); expressed in transfected cells; host or cells: HEK293. The method, boiled down: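 Mammalian two-hybrid read-out of LXR–coactivator (SRC1) or corepressor (NCoR) interaction: firefly luciferase under GAL4 response elements, normalised via Renilla co-transfection. LXRα/β full-length or LBD fusions expressed transiently in HEK293; compounds (final DMSO ≤0.2%) given 4 h after transfection for 16 h before lysis.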

Data set [4] concerns the target T3, GST-LXRβ ligand-binding domain (Homo sapiens, UniProt P55055).
T3 construct: amino acids 156-461; NP009052; made in house; host or cells: E. coli
T3 sequence (P55055 156-460 limits assumed): T1 sequence (P55055 156-460)
Kind of data set: TR-FRETβ activity assay (NCoA3 coactivator peptide recruitment). The settings on record: 1 μM 24(S)-25-epoxycholesterol prestimulation. Format: biochemical. The method, boiled down: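 Inverse-agonist format, with LXR prestimulated by 1 μM 24(S)-25-epoxycholesterol in pH 6.8 Tris/HCl, 240 mM KCl, BSA and Triton. Ten concentrations from 50 μM to 0.002 μM were equilibrated 1 h at 4° C with 76 nM GST-LXRβ LBD and 400 nM biotin-NCoA3 peptide. Peptide recruitment detected by 665/615 nm TR-FRET.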

Data set [5] has as its target T4, LXRα (Homo sapiens, UniProt Q13133).
T4 sequence (Q13133 1-447): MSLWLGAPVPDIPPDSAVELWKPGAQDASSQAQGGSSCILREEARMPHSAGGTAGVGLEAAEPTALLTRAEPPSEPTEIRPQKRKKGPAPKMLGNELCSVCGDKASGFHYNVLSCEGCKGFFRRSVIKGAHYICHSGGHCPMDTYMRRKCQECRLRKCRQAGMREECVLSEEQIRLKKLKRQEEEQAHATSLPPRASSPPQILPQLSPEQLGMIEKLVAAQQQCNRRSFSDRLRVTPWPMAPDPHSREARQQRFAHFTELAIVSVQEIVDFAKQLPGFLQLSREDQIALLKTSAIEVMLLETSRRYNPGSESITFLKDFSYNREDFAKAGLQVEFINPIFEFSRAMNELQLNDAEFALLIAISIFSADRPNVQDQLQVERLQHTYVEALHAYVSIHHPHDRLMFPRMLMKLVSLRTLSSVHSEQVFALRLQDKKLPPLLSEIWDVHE
Put plainly: LXR Gal4 reporter transient transfection assay (mammalian two-hybrid, HEK293), LXRα. Format: cell-based. More on the design: expressed in transfected cells; host or cells: HEK293. The settings on record: full length (FL) LXRα, HEK293; read-out: FL-M2H Gal4α. The procedure: as §1, §2

As to `N#Cc1sccc1-c1c(-c2cccc(C3CC3C(=O)O)c2)n(S(=O)(=O)c2ccc(Cl)cc2)c2ccc(F)cc12` (stereo not drawn) [3/24], in data set [1], the blood/plasma exposure entry is reported as “D (<100 nM)”, the liver exposure result was “C (1 μM to ≤3 μM)” and the liver/blood ratio entry was “D (>30)”. The EC50 in data set [2] is below 0.1 µM. In data set [3], the EC50 is below 0.1 µM.
Take `N#Cc1sccc1-c1c(-c2cccc(N3CC(C(=O)O)C3)c2)n(S(=O)(=O)c2ccc(Cl)cc2)c2ccccc12` [30/7]: in data set [1], the blood/plasma exposure entry is given as “D (<100 nM)”, the liver exposure entry was “B (300 nM to ≤1 μM)” and the liver/blood ratio entry is reported as “D (>30)”. The same compound displayed an EC50 in data set [4] of 0.1 to 1 µM. The EC50 in data set [2] was below 0.1 µM.
As to `Cc1ccc(S(=O)(=O)n2c(-c3cccc(-c4ccc(-c5nnn[nH]5)cc4Cl)c3)c(-c3ccsc3C#N)c3cc(F)ccc32)cc1` [Compound 37], the EC50 in data set [5] was below 0.1 µM; in data set [4] it was 0.1 to 1 µM; in data set [3], below 0.1 µM.
Take `Cc1ccc(S(=O)(=O)n2c(-c3cccc(-c4cc(C)c(C(=O)O)cc4Cl)c3)c(-c3ccsc3C#N)c3cc(F)ccc32)cc1` [Compound 12]: the EC50 was below 0.1 µM in data set [5], 0.1 to 1 µM in data set [4] and below 0.1 µM in data set [3].
In the case of `Cc1ccc(S(=O)(=O)n2c(-c3cccc(-c4ccc(C(=O)O)cc4Cl)c3)c(-c3ccccc3C#N)c3cc(F)ccc32)cc1` [Compound 11], the EC50 in data set [5], in data set [4] and in data set [3] was below 0.1 µM each time.
Regarding `Cc1ccc(S(=O)(=O)n2c(-c3cccc(-c4cncc(S(=O)(=O)CC(=O)O)c4)c3)c(-c3ccsc3C#N)c3ccccc32)cc1` [Compound 5], the EC50 in data set [5] is 1 to 10 µM; in data set [4] it was 0.1 to 1 µM; in data set [3], 1 to 10 µM.
As for `Cc1ccc(S(=O)(=O)n2c(-c3cccc(-c4ccc(C(=O)NCCS(=O)(=O)O)cc4Cl)c3)c(-c3ccsc3C#N)c3cc(F)ccc32)cc1` [Compound 10], the EC50 is below 0.1 µM in data set [5], 0.1 to 1 µM in data set [4] and 0.1 to 1 µM in data set [3].
`N#Cc1cccc(C#N)c1-c1c(-c2cccc(-c3ccc(C(=O)O)cc3)c2)n(S(=O)(=O)c2ccc(C(F)F)cc2)c2ccc(F)cc12` [11/50]: the EC50 in data set [5], in data set [4] and in data set [3] was below 0.1 µM throughout.
Take `Cc1ccc(S(=O)(=O)n2c(-c3cccc(-c4ccc(CN(C)C)cc4Cl)c3)c(-c3ccsc3C#N)c3cc(F)ccc32)cc1` [Compound 2]: the EC50 in data set [5] is below 0.1 µM; in data set [4] it was 0.1 to 1 µM; in data set [3], below 0.1 µM.
As for `Cc1ccc(S(=O)(=O)n2c(-c3cccc(-c4ccc(C(=O)NO)cc4)c3)c(-c3ccsc3C#N)c3cc(F)ccc32)cc1` [Compound 6], the results for the EC50 in data set [5], in data set [4] and in data set [3] were below 0.1 µM, 0.1 to 1 µM and below 0.1 µM, respectively.
`N#Cc1cccc(C#N)c1-c1c(-c2cccc(-c3ccc(C(=O)O)cc3Cl)c2)n(S(=O)(=O)c2ccc(C(F)F)cc2)c2cc(F)c(O)cc12` [Compound 44]: the EC50 in data set [5] was below 0.1 µM; in data set [4], 0.1 to 1 µM; in data set [3] it was below 0.1 µM.
As to `N#Cc1cccc(-c2c(-c3cccc(-c4ccc(C(=O)O)cc4Cl)c3)n(S(=O)(=O)c3ccc(C(F)F)cc3)c3ccc(F)cc23)c1` [C11/48], the EC50 in data set [5], in data set [4] and in data set [3] was below 0.1 µM each time.
Take `Cc1ccc(S(=O)(=O)n2c(-c3cccc(-c4cnc(C(=O)O)cc4C)c3)c(-c3ccsc3C#N)c3cc(F)ccc32)cc1` [Compound 36]: the EC50 in data set [5] lay within 0.1 to 1 µM; in data set [4], 1 to 10 µM; in data set [3] it was 0.1 to 1 µM.
Turning to `Cc1cccc(C#N)c1-c1c(-c2cccc(-c3ccc(C(=O)O)cc3Cl)c2)n(S(=O)(=O)c2ccc(C(F)F)cc2)c2ccc(F)cc12` [41/2, 2-chloro-3′-(3-(2-cyano-6-methylphenyl)-1-((4-(difluoro-methyl)phenyl)sulfonyl)-5-fluoro-1H-indol-2-yl)-[1,1′-biphenyl]-4-carboxylic acid], the EC50 in data set [5] and in data set [4] was below 0.1 µM throughout.
On to `Cc1ccc(S(=O)(=O)n2c(-c3cccc(-c4ccc(C(N)=O)cc4)c3)c(-c3ccsc3C#N)c3cc(F)ccc32)cc1` [6/2], for which the EC50 in data set [5] is below 0.1 µM; in data set [4] it was 0.1 to 1 µM; in data set [3], below 0.1 µM.
Turning to `Cc1cccc(C#N)c1-c1c(-c2cccc(-c3ccc(C(=O)O)cc3Cl)c2)n(S(=O)(=O)c2ccc(C(F)F)cc2)c2ccc(F)cc12` [11/36], the EC50 in data set [5], in data set [4] and in data set [3] was below 0.1 µM each time.
